{
  "source": "patent US20090270474A1",
  "about": "“Therapeutic Agent for Keratoconjunctival Disorder” (priority 2005, published 2009)",
  "tested_on": "corneal disorder models",
  "assay": "Test for therapeutic effect on corneal disorder (exorbital lacrimal gland removal model, fluorescein staining score)",
  "format": "in vivo, male SD rats",
  "description": "Using male SD rats, corneal disorder models were produced in accordance with the method of Fujihara et al. (Invest. Opthalmol. Vis. Sci. 42 (1): 96-100 (2001)). After the production of the corneal disorder models, the corneal disorder score was evaluated in accordance with the method of Murakami et al. (Journal of the eye 21 (1): 87-90 (2004)), and the improvement ratio of corneal disorder after instillation of eprosartan mesylate (hereinafter referred to as “Compound A”) was obtained.\nAs test animals, male SD rats were used, and systemic anesthesia was given to the rats by administration of Nembutal. Subsequently the exorbital lacrimal gland was removed and a corneal disorder was induced over a period of 2 months.\nThen, Compound A was administered as follows.\nA phosphate-buffered saline solution (PBS solution) containing Compound A (0.1%) was instilled into both eyes 6 times a day for 14 days (instilled amount: 5 μL/dose) (one group consisting of 4 animals, 8 eyes).\nIn a control group, PBS solution was instilled into both eyes 6 times a day for 14 days (instilled amount: 5 μL/dose) (one group consisting of 4 animals, 8 eyes).\nFourteen days after the start of instillation, the damaged parts of the cornea were stained with fluorescein. For each of the upper, middle and lower parts of the cornea, the degree of fluorescein staining was evaluated by scoring according to the criteria shown below and the improvement ratio of corneal disorder was calculated from the mean value of the total scores for each of the above-mentioned parts.\nAlso for normal eyes, the mean value of the total scores for each of the above-mentioned parts was obtained. […]\nBy taking the mean value of the total scores for the control group (PBS solution) as a standard (improvement ratio: 0%) and according to the calculation formula shown below, the improvement ratio in the Compound A instillation group was calculated, which is shown in Table 1. […]",
  "data": [
    {"smiles": "CCCCc1ncc(/C=C(\\Cc2cccs2)C(=O)O)n1Cc1ccc(C(=O)O)cc1", "note": "[Compound A, (E)-a-[[2-n-butyl-1-[(4-carboxyphenyl)methyl]-1H-imidazol-5-yl]methylene]-2-thiophenepropionic acid monomethanesulfonate]", "values": [
      {"measurement": "Improvement ratio (%)", "setting": "0.1% in PBS instilled 6 times a day for 14 days, {(control)-(Compound A)}/((control)-(normal eye))x100, control = 0%", "result": 84.8, "unit": "%"},
      {"measurement": "Improvement of corneal damage (in words)", "setting": "rats, Table 1, 0.1% instillation for 14 days", "result": "significantly improved a corneal damage"},
      {"measurement": "Mean value of scores", "setting": "total fluorescein staining score (upper, middle, lower cornea, each 0-3), 0.1% in PBS instilled into both eyes 6 times a day for 14 days, mean of 8 eyes, control 6.1, normal eye 2.8", "result": 3.3}
    ]}
  ]
}
